Assay results published in US6585967B2, “Adhesive treatment for tinea cruris” (Closure Medical Corporation, priority 2001, dated 2003).

Assay: Observation of haloprogin / 2-octyl cyanoacrylate monomer composition after preparation
Type: physicochemical
Experimental: A 2-octyl cyanoacrylate monomer composition is prepared by adding 30 mg of haloprogin, an anti-fungal agent, to 2 mL of 2-octyl cyanoacrylate monomer. The mixture is sealed in a glass vial and stirred. The characteristics of the composition are observed at about one minute after preparation and later at least twenty-four hours after preparation.

- premature polymerization of the monomer (stability) (30 mg haloprogin in 2 mL 2-octyl cyanoacrylate monomer, at least twenty-four hours after preparation): does not cause premature polymerization
- solubility of haloprogin in the monomer (30 mg in 2 mL 2-octyl cyanoacrylate monomer, about one minute and at least twenty-four hours after preparation): soluble in the monomer
Compound: Clc1cc(Cl)c(OCC#CI)cc1Cl [haloprogin]
